Read-outs that look alike come from different tables or passages of the source.
Columns and labels:
hα2C receptor = molecular target: T1, hα2C receptor (Homo sapiens, UniProt P18825); assay: Radioligand binding experiment for hα2C receptor ([3H]-raulwolscine)
T1 construct: expressed in transfected cells
T1 sequence (P18825 1-462): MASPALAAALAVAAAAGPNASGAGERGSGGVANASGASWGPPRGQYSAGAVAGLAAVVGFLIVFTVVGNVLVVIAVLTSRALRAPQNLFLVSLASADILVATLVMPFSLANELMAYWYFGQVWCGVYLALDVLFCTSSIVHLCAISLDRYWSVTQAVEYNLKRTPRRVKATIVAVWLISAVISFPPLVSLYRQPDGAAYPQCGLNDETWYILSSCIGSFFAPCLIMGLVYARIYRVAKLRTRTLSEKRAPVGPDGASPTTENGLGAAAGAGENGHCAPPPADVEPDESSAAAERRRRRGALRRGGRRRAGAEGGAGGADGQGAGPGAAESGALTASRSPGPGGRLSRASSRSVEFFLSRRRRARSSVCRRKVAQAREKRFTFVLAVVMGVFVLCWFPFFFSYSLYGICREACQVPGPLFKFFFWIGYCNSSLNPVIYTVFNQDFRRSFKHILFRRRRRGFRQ
Method: (§1) The interaction of the compounds of Formula (I) with hα2-receptors and h5-HT-transporters was assessed in in vitro radioligand binding experiments. In general, a low concentration of a radioligand with a high binding affinity for a particular receptor or transporter is incubated with a sample of a tissue preparation enriched in a particular receptor or transporter or with a preparation of cells expressing cloned human receptors in a buffered medium. During the incubation, the radioligand binds to the receptor or transporter. When equilibrium of binding is reached, the receptor bound radioactivity is separated from the non-bound radioactivity, and the receptor- or transporter-bound activity is counted. The interaction of the test compounds with the receptor is assessed in competition binding experiments. Various concentrations of the test compound are added to the incubation mixture containing the receptor- or transporter preparation and the radioligand. The test compound in proportion to its binding affinity and its concentration inhibits binding of the radioligand. The radioligand used for hα2A, hα2B and hα2C receptor binding was [^3H]-raulwolscine and for the h5-HT transporter was [^3H]paroxetine.
(§2) CHO cells, stabile transfected with human adrenergic-α2A-, -α2B or α2C receptor cDNA, were cultured in Dulbecco's Modified Eagle's Medium (DMEM)/Nutrient mixture Ham's F12 (ratio 1:1)(Gibco, Gent-Belgium) supplemented with 10% heat inactivated fetal calf serum (Life Technologies, Merelbeke-Belgium) and antibiotics (100 IU/ml penicillin G, 100 μg/ml streptomycin sulphate, 110 μg/ml pyruvic acid and 100 μg/ml L-glutamine). One day before collection, cells were induced with 5 mM sodiumbutyrate. Upon 80–90% of confluence, cells were scraped in phosphate buffered saline without Ca^2+ and Mg^2+ and collected by centrifugation at 1500×g for 10 min. The cells were homogenised in Tris-HCl 50 mM using an Ultraturrax homogenizer and centrifuged for 10 min at 23,500×g. The pellet was washed once by resuspension and rehomogenization and the final pellet was resuspended in Tris-HCl, divided in 1 ml aliquots and stored at −70° C.
(§3) Membranes were thawed and re-homogenized in incubation buffer (glycylglycine 25 mM, pH 8.0). […] Filters were rinsed extensively with ice-cold rinsing buffer (Tris-HCl 50 mM pH 7.4). Filter-bound radioactivity was determined by scintillation counting in a Topcount (Packard, Meriden, Conn.) and results were expressed as counts per minute (cpm). Non-specific binding was determined in the presence of 1 μM oxymetazoline for hα2A- and hα2B receptors and 1 μM spiroxatrine for hα2C receptors.
(§4) Data from assays in the presence of compound were calculated as a percentage of total binding measured in the absence of test compound. Inhibition curves, plotting percent of total binding versus the log value of the concentration of the test compound, were automatically generated, and sigmoidal inhibition curves were fitted using non-linear regression. The pIC50 values of test compounds were derived from individual curves.

h5-HT transporter = molecular target: T2, h5-HT transporter (Homo sapiens, UniProt P31645); assay: Radioligand binding experiment for 5-HT transporter ([3H]paroxetine, human platelet membranes)
T2 construct: Human platelet membranes (Oceanix Biosciences Corporation, Hanover, Md., USA) were thawed; tissue Oceanix Biosciences Corporation, Hanover, Md., USA; host or cells: human platelet membranes
Method: as §1
Human platelet membranes (Oceanix Biosciences Corporation, Hanover, Md., USA) were thawed, diluted in buffer (Tris-HCl 50 mM, 120 mM NaCl and 5 mM KCl) and quickly (max 3 s) homogenised with an Ultraturrax homogenizer. […] Filters were rinsed extensively with ice-cold buffer and radioactivity on the filters was counted in a Topcount liquid scintillation counter (Packard, Meriden, Conn.). Data were expressed as cpm. Imipramine (at 1 μM final concentration) was used to determine the non-specific binding.
as §4

hα2B receptor = molecular target: T3, hα2B receptor (Homo sapiens, UniProt P18089); assay: Radioligand binding experiment for hα2B receptor ([3H]-raulwolscine)
T3 construct: expressed in transfected cells
T3 sequence (P18089 1-450): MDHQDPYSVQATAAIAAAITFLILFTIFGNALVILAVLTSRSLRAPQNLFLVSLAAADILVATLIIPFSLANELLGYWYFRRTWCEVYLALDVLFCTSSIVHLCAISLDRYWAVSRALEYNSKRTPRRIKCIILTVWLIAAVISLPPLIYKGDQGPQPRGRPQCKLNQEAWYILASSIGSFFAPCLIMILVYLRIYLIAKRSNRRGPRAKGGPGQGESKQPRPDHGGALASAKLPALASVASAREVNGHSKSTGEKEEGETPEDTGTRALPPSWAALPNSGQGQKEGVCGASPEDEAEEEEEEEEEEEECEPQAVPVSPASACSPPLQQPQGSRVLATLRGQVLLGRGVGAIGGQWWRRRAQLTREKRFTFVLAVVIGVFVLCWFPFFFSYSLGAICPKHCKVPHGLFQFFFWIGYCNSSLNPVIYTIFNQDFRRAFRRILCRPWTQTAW
Method: as §1, §2, §3, §4

[1] = membranes of CHO cells expressing human α2C receptor, [3H]raulwolscine 1 nM, read-out: hα2C pIC50 (converted)
[2] = human platelet membranes, [3H]paroxetine 0.5 nM, read-out: 5HTT pIC50 (converted)
[3] = membranes of CHO cells expressing human α2B receptor, [3H]raulwolscine 1 nM, read-out: hα2B pIC50 (converted)
[4] = membranes of CHO cells expressing human α2C receptor, [3H]raulwolscine 1 nM
[5] = human platelet membranes, [3H]paroxetine 0.5 nM
[6] = membranes of CHO cells expressing human α2B receptor, [3H]raulwolscine 1 nM
[7] = read-out: hα2C pIC50 (converted)
[8] = read-out: 5HTT pIC50 (converted)
[9] = read-out: hα2B pIC50 (converted)
[10] = hα2C pIC50, membranes of CHO cells expressing human α2C receptor, [3H]raulwolscine 1 nM

T2 sequence (P31645 whole entry): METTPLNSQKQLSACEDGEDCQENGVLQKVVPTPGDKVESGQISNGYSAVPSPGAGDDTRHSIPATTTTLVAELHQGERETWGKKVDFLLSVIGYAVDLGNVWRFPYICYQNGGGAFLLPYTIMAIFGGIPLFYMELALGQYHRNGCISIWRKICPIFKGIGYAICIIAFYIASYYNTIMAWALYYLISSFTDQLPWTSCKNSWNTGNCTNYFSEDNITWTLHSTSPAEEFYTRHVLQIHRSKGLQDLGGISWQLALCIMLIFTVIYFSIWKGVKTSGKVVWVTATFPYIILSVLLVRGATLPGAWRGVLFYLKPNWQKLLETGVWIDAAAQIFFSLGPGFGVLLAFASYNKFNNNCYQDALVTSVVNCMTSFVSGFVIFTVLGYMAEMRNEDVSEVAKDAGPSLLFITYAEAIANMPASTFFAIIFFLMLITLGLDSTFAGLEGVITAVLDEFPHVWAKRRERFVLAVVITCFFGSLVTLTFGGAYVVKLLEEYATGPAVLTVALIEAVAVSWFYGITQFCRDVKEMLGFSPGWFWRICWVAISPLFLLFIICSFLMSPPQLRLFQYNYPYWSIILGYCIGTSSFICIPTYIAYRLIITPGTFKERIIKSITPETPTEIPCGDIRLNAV

COc1cc2c(cc1OC)C1=NOC(CN3CCN(Cc4ccccc4C(F)(F)F)CC3)C1CO2 (stereo not shown) [Compound 79]
IC50 (hα2C receptor; [1]): 1000 nM
IC50 (h5-HT transporter; [2]): 1000 nM

COCCOc1ccc2c(c1)OCC1C2=NOC1CN1CCN(CC(C)=Cc2ccccc2)CC1 (stereo not shown) [Compound 239]
IC50 (hα2C receptor; [1]): 0.288 nM
IC50 (h5-HT transporter; [2]): 14.1 nM
IC50 (hα2B receptor; [3]): 2.4 nM

CC(=Cc1ccccc1)CN1CCN(CC2ON=C3c4ccc(OC5CCCC5)cc4OCC32)CC1 (stereo not shown) [Compound 243]
hα2C pIC50 (hα2C receptor; [4]): 8.29
5HTT pIC50 (h5-HT transporter; [5]): 6.75
hα2B pIC50 (hα2B receptor; [6]): 7.77

COc1cc2c(cc1OC)C1=NOC(CN3CCN(C/C=C(\C)c4ccccc4)CC3)C1CO2 (single isomer, unassigned) [Compound 320]
IC50 (hα2C receptor; [7]): 6.76 nM
IC50 (h5-HT transporter; [8]): 32.4 nM
IC50 (hα2B receptor; [9]): 20 nM

CCNC(=O)Oc1ccc2c(c1)OCC1C2=NOC1CN1CCN(CC(C)=Cc2ccccc2)CC1 (stereo not shown) [Compound 238]
IC50 (hα2C receptor; [10]): 2.57 nM
IC50 (h5-HT transporter; 5HTT pIC50): 8.51 nM
IC50 (hα2B receptor; hα2B pIC50, membranes of CHO cells expressing human α2B receptor, [3H]raulwolscine 1 nM): 2.4 nM

COc1cc2c(cc1OC)C1=NOC(CN3CCN(Cc4ccc([N+](=O)[O-])cc4)CC3)C1CO2 (stereo not shown) [Compound 81]
IC50 (hα2C receptor; [1]): 1000 nM
IC50 (h5-HT transporter; [2]): 145 nM

O=C(N1CC2C(=NOC2CN2CCN(CC=Cc3ccccc3)CC2)c2ccccc21)C(F)(F)F (stereo not shown) [Compound 224]
hα2C pIC50 (hα2C receptor; [4]): 7.13
5HTT pIC50 (h5-HT transporter; [5]): 7.31
hα2B pIC50 (hα2B receptor; [6]): 7.66

COc1cc2c(cc1OC)C1=NOC(CN3CCN(C/C=C/c4ccccc4)CC3)C1CO2 (single isomer, unassigned) [Compound 1]
IC50 (h5-HT transporter; [8]): 5.13 nM
IC50 (hα2B receptor; [9]): 3.24 nM

CC(=Cc1ccccc1)CN1CCN(CC2ON=C3c4ccc(OC(=O)C5CC5)cc4OCC32)CC1 (stereo not shown) [Compound 250]
IC50 (hα2C receptor; [7]): 3.31 nM
IC50 (h5-HT transporter; [2]): 81.3 nM
IC50 (hα2B receptor; [3]): 6.76 nM

COc1ccc2c(c1)OCC1C2=NOC1CN1CCN(CC=Cc2ccccc2)CC1 (stereo not shown) [Compound 217]
IC50 (hα2C receptor; [7]): 14.1 nM
IC50 (h5-HT transporter; [2]): 53.7 nM
IC50 (hα2B receptor; [3]): 6.17 nM

C=CC(=O)Oc1ccc2c(c1)OCC1C2=NOC1CN1CCN(CC(C)=Cc2ccccc2)CC1 (stereo not shown) [Compound 251]
hα2C pIC50 (hα2C receptor; [4]): 8.26
5HTT pIC50 (h5-HT transporter; [5]): 6.89
hα2B pIC50 (hα2B receptor; [6]): 8.31

COc1cc2c(cc1OC)C1=NOC(CN3CCN(C/C(C)=C/c4ccccc4)CC3)C1CO2 (single isomer, unassigned) [Compound 129]
IC50 (hα2C receptor; [1]): 6.76 nM
IC50 (hα2B receptor; [3]): 9.77 nM

COc1cc2c(cc1OC)C1=NOC(CN3CCN(Cc4ccc5ccccc5c4)CC3)C1CN2 (stereo not shown) [Compound 15]
IC50 (hα2C receptor; [1]): 11.5 nM
IC50 (h5-HT transporter; [8]): 17 nM
IC50 (hα2B receptor; [3]): 14.5 nM

COc1cc2c(cc1OC)C1=NOC(CN3CCN(Cc4ccc5ccccc5c4)CC3)C1CO2 (single isomer, unassigned) [Compound 16]
IC50 (hα2C receptor; [7]): 6.76 nM
IC50 (h5-HT transporter; [8]): 3.72 nM
IC50 (hα2B receptor; [9]): 6.17 nM

CC(=Cc1ccccc1)CN1CCN(CC2ON=C3c4ccc(O)cc4OCC32)CC1 (stereo not shown) [Compound 237]
IC50 (hα2C receptor; [1]): 1.17 nM
IC50 (h5-HT transporter; [2]): 11.5 nM
IC50 (hα2B receptor; [3]): 1.26 nM

COc1cc2c(cc1OC)C1=NOC(CN3CCN(Cc4ccc5ccccc5c4)CC3)C1CN2 (stereo not shown) [Compound 272]
IC50 (hα2C receptor; [1]): 135 nM
IC50 (h5-HT transporter; [8]): 4.79 nM
IC50 (hα2B receptor; [3]): 26.9 nM

COc1cc2c(cc1OC)C1=NOC(CN3CCN(CC=C(C)c4ccccc4)CC3)C1CN2 (stereo not shown) [Compound 379]
IC50 (hα2C receptor; [1]): 40.7 nM
IC50 (h5-HT transporter; [2]): 34.7 nM
IC50 (hα2B receptor; [3]): 19.5 nM

COc1cc2c(cc1OC)C1=NOC(CN3CCN(C/C=C/c4ccccc4)CC3)C1CO2 (single isomer, unassigned) [Compound 8]
IC50 (h5-HT transporter; [8]): 17.8 nM
IC50 (hα2B receptor; [9]): 7.24 nM

COc1cc2c(cc1OC)C1=NOC(CN3CCN(CC=Cc4cccc(F)c4)CC3)C1CN2 (stereo not shown) [Compound 351]
hα2C pIC50 (hα2C receptor; [4]): 8.19
5HTT pIC50 (h5-HT transporter; [5]): 8.06
hα2B pIC50 (hα2B receptor; [6]): 8.16

CC(=Cc1ccccc1)CN1CCN(CC2ON=C3c4ccc(OCCN(C)C)cc4OCC32)CC1 (stereo not shown) [Compound 242]
IC50 (h5-HT transporter; [2]): 11.2 nM
IC50 (hα2B receptor; [3]): 0.363 nM

CCNC(=O)Oc1cc2c(cc1OC)C1=NOC(CN3CCN(C/C(C)=C/c4ccccc4)CC3)C1CO2 (single isomer, unassigned) [Compound 340]
IC50 (hα2C receptor; [10]): 3.8 nM
IC50 (h5-HT transporter; 5HTT pIC50): 22.9 nM

c1ccc2c(c1)NCC1C2=NOC1CN1CCN(Cc2ccc3ccccc3c2)CC1 (stereo not shown) [Compound 9]
IC50 (hα2C receptor; [1]): 107 nM
IC50 (h5-HT transporter; [2]): 1.58 nM
IC50 (hα2B receptor; [3]): 4.68 nM

COc1cc2c(cc1OC)C1=NOC(CN3CCN(Cc4cccc(C#N)c4)CC3)C1CO2 (stereo not shown) [Compound 97]
IC50 (hα2C receptor; [1]): 1000 nM
IC50 (h5-HT transporter; [2]): 355 nM

CC(=Cc1ccccc1)CN1CCN(CC2ON=C3c4ccccc4NCC32)CC1 (stereo not shown) [Compound 234]
hα2C pIC50 (hα2C receptor; [4]): 8.41
5HTT pIC50 (h5-HT transporter; [5]): 7.71
hα2B pIC50 (hα2B receptor; [6]): 8.88

COc1cc2c(cc1OC)C1=NOC(CN3CCN(CC(C)=Cc4ccccc4)CC3)C1CN2 (single isomer, unassigned) [Compound 253]
hα2C pIC50 (hα2C receptor; [4]): 7.98
5HTT pIC50 (h5-HT transporter; [5]): 6.60
hα2B pIC50 (hα2B receptor; [6]): 7.94

CCOC(=O)N1CC2C(=NOC2CN2CCN(CC=Cc3ccccc3)CC2)c2ccccc21 (stereo not shown) [Compound 226]
hα2C pIC50 (hα2C receptor; [4]): 6.96
5HTT pIC50 (h5-HT transporter; [5]): 8.08
hα2B pIC50 (hα2B receptor; [6]): 7.09

Reference: patent US7169786B2, “Isoxazoline derivatives as anti-depressants” (priority 2001, dated 2007)
